Consider four compounds from PubChem BioAssay AID1259407 (Chemical Carcinogenesis Research Information System (CCRIS), 2018).

Molecules are shown by their SMILES. Active and inactive are the calls of the source. No rule for the calls is given here.

In the data set the test system is CCRIS mutagenicity, Ames/micronucleus/aberration tests. Put plainly: CCRIS mutagenicity studies.
Setting [1] is: Test System: AMES SALMONELLA TYPHIMURIUM, Strain/Indicator: TA98, Metabolic Activation: NONE, Method: PREINCUBATION
The mark [2] stands for this setting: Test System: AMES SALMONELLA TYPHIMURIUM, Strain/Indicator: TA100, Metabolic Activation: NONE, Method: PREINCUBATION
Where [3] appears, read: Test System: AMES SALMONELLA TYPHIMURIUM, Strain/Indicator: TA1535, Metabolic Activation: NONE, Method: PREINCUBATION
The mark [4] stands for this setting: Test System: AMES SALMONELLA TYPHIMURIUM, Strain/Indicator: TA1537, Metabolic Activation: NONE, Method: PREINCUBATION

`CN(C)N`: the mutagenic call was “active; positive (structural changes)” (End Point: IN VITRO CHROMOSOMAL ABERRATIONS, Test System: CHL CELLS, Metabolic Activation: NONE); “active; positive (structural changes)” (End Point: IN VITRO CHROMOSOMAL ABERRATIONS, Test System: CHL CELLS, Metabolic Activation: RAT, LIVER, S-9, SODIUM PHENOBARBITAL AND 5,6-BENZOFLAVONE); “inactive; negative” under setting [1]; “inactive; negative” (Test System: AMES SALMONELLA TYPHIMURIUM, Strain/Indicator: TA98, Metabolic Activation: RAT LIVER S-9, PHENOBARBITAL AND BETA-NAPHTHOFLAVONE, Method: PREINCUBATION); “inactive; negative” under setting [2]; “inactive; negative” (Test System: AMES SALMONELLA TYPHIMURIUM, Strain/Indicator: TA100, Metabolic Activation: NONE, Method: STANDARD PLATE). Further, the mutagenic call is, setting by setting: (Test System: AMES SALMONELLA TYPHIMURIUM, Strain/Indicator: TA100, Metabolic Activation: RAT LIVER S-9, PHENOBARBITAL AND BETA-NAPHTHOFLAVONE, Method: PREINCUBATION) “inactive; negative”; (Test System: AMES SALMONELLA TYPHIMURIUM, Strain/Indicator: TA100, Metabolic Activation: RAT, LIVER, S-9, AROCLOR 1254 (1 OR 2 MG), Method: STANDARD PLATE) “inactive; negative”; (Test System: AMES SALMONELLA TYPHIMURIUM, Strain/Indicator: TA100, Metabolic Activation: RAT, LIVER, S-9, AROCLOR 1254, Method: STANDARD PLATE) “inactive; negative”; (Test System: AMES SALMONELLA TYPHIMURIUM, Strain/Indicator: TA102, Metabolic Activation: NONE, Method: PREINCUBATION) “inactive; negative”; (Test System: AMES SALMONELLA TYPHIMURIUM, Strain/Indicator: TA102, Metabolic Activation: NONE, Method: STANDARD PLATE) “inactive; negative”; (Test System: AMES SALMONELLA TYPHIMURIUM, Strain/Indicator: TA102, Metabolic Activation: RAT LIVER S-9, PHENOBARBITAL AND BETA-NAPHTHOFLAVONE, Method: PREINCUBATION) “inactive; negative”. For the same compound, the mutagenic call was “inactive; negative” (Test System: AMES SALMONELLA TYPHIMURIUM, Strain/Indicator: TA102, Metabolic Activation: RAT, LIVER, S-9, AROCLOR 1254 (1 OR 2 MG), Method: STANDARD PLATE); “inactive; negative” (Test System: AMES SALMONELLA TYPHIMURIUM, Strain/Indicator: TA102, Metabolic Activation: RAT, LIVER, S-9, AROCLOR 1254, Method: STANDARD PLATE); “inactive; negative” (Test System: AMES SALMONELLA TYPHIMURIUM, Strain/Indicator: TA104, Metabolic Activation: NONE, Method: PREINCUBATION); “inactive; negative” (Test System: AMES SALMONELLA TYPHIMURIUM, Strain/Indicator: TA104, Metabolic Activation: RAT LIVER S-9, PHENOBARBITAL AND BETA-NAPHTHOFLAVONE, Method: PREINCUBATION); “active; positive” (Test System: AMES SALMONELLA TYPHIMURIUM, Strain/Indicator: TA1530, Metabolic Activation: NONE, Method: STANDARD PLATE); “inactive; negative” under setting [3]. For the same compound, the mutagenic call was “inactive; negative” (Test System: AMES SALMONELLA TYPHIMURIUM, Strain/Indicator: TA1535, Metabolic Activation: RAT LIVER S-9, PHENOBARBITAL AND BETA-NAPHTHOFLAVONE, Method: PREINCUBATION); “inactive; negative” (Test System: AMES SALMONELLA TYPHIMURIUM, Strain/Indicator: TA1535, Metabolic Activation: RAT, LIVER, S-9, AROCLOR 1254, Method: PREINCUBATION); “inactive; negative” (Test System: AMES SALMONELLA TYPHIMURIUM, Strain/Indicator: TA1537, Metabolic Activation: RAT LIVER S-9, PHENOBARBITAL AND BETA-NAPHTHOFLAVONE, Method: PREINCUBATION); “inactive; negative” (Test System: AMES SALMONELLA TYPHIMURIUM, Strain/Indicator: TA1537, Metabolic Activation: RAT, LIVER, S-9, AROCLOR 1254, Method: PREINCUBATION); “active; positive” (Test System: AMES SALMONELLA TYPHIMURIUM, Strain/Indicator: TA2638, Metabolic Activation: NONE, Method: STANDARD PLATE); “active; positive” (Test System: E. COLI, Strain/Indicator: WP2 (PKM101), Metabolic Activation: NONE, Method: STANDARD PLATE). The mutagenic call is, setting by setting: (Test System: E. COLI, Strain/Indicator: WP2 UVRA (PKM101), Metabolic Activation: NONE, Method: STANDARD PLATE) “active; positive”; (Test System: E.COLI, Strain/Indicator: WP2UVRA/PKM101, Metabolic Activation: NONE, Method: PREINCUBATION) “inactive; negative”; (Test System: E.COLI, Strain/Indicator: WP2UVRA/PKM101, Metabolic Activation: RAT LIVER S-9, PHENOBARBITAL AND BETA-NAPHTHOFLAVONE, Method: PREINCUBATION) “inactive; negative”; (Test System: E.COLI, Strain/Indicator: WP2UVRA, Metabolic Activation: NONE, Method: PREINCUBATION) “inactive; negative”; (Test System: E.COLI, Strain/Indicator: WP2UVRA, Metabolic Activation: RAT LIVER S-9, PHENOBARBITAL AND BETA-NAPHTHOFLAVONE, Method: PREINCUBATION) “inactive; negative”.
Regarding `COc1c(C=O)c(O)cc2c1C(=O)c1ccccc1C2=O`, the mutagenic call was “inactive; negative” under setting [1]; “inactive; negative” (Test System: AMES SALMONELLA TYPHIMURIUM, Strain/Indicator: TA98, Metabolic Activation: RAT, LIVER, S-9, PCB, Method: PREINCUBATION); “inactive; negative” under setting [2]; “inactive; negative” (Test System: AMES SALMONELLA TYPHIMURIUM, Strain/Indicator: TA100, Metabolic Activation: RAT, LIVER, S-9, PCB, Method: PREINCUBATION).
With `C[n+]1c2ccccc2cc2ccccc21`, the mutagenic call under setting [3] is “inactive; negative”; the mutagenic call (Test System: AMES SALMONELLA TYPHIMURIUM, Strain/Indicator: TA1535, Metabolic Activation: RAT, LIVER, S-9, TETRACHLOROBIPHENYL, Method: PREINCUBATION) is “inactive; negative”; the mutagenic call under setting [4] is “inactive; negative”; the mutagenic call (Test System: AMES SALMONELLA TYPHIMURIUM, Strain/Indicator: TA1537, Metabolic Activation: RAT, LIVER, S-9, TETRACHLOROBIPHENYL, Method: PREINCUBATION) was “active; positive”; the mutagenic call (Test System: AMES SALMONELLA TYPHIMURIUM, Strain/Indicator: TA1538, Metabolic Activation: NONE, Method: PREINCUBATION) is “inactive; negative”; the mutagenic call (Test System: AMES SALMONELLA TYPHIMURIUM, Strain/Indicator: TA1538, Metabolic Activation: RAT, LIVER, S-9, TETRACHLOROBIPHENYL, Method: PREINCUBATION) is “active; positive”. Also, the mutagenic call (Test System: AMES SALMONELLA TYPHIMURIUM, Strain/Indicator: TA1978, Metabolic Activation: RAT, LIVER, S-9, TETRACHLOROBIPHENYL, Method: PREINCUBATION) was “inactive; negative”.
For `C[C@@H](O)[C@H]1C(=O)N2C(C(=O)O)=C([C@H]3CCCO3)S[C@H]12`, the mutagenic call is “inactive; negative” under setting [1]; “inactive; negative” (Test System: AMES SALMONELLA TYPHIMURIUM, Strain/Indicator: TA98, Metabolic Activation: S-9, Method: PREINCUBATION); “inactive; negative” under setting [2]; “inactive; negative” (Test System: AMES SALMONELLA TYPHIMURIUM, Strain/Indicator: TA100, Metabolic Activation: S-9, Method: PREINCUBATION); “inactive; negative” under setting [3]; “inactive; negative” (Test System: AMES SALMONELLA TYPHIMURIUM, Strain/Indicator: TA1535, Metabolic Activation: S-9, Method: PREINCUBATION). Also, the mutagenic call reads like this: under setting [4], “inactive; negative”; (Test System: AMES SALMONELLA TYPHIMURIUM, Strain/Indicator: TA1537, Metabolic Activation: S-9, Method: PREINCUBATION) “inactive; negative”; (Test System: E.COLI, Strain/Indicator: WP2 UVRA, Metabolic Activation: NONE, Method: PREINCUBATION) “inactive; negative”; (Test System: E.COLI, Strain/Indicator: WP2 UVRA, Metabolic Activation: S-9, Method: PREINCUBATION) “inactive; negative”.
